ChEMBL document CHEMBL5126669, “Discovery of 5,7-Dihydro-6H-pyrrolo[2,3-d]pyrimidin-6-ones as Highly Selective CDK2 Inhibitors” (ACS Med Chem Lett, 2022)

Columns and labels:
[1] = biological target: Cyclin-dependent kinase 2/cyclin E1 (Homo sapiens, UniProt P24941); experiment: Inhibition of recombinant human N-terminal GST-tagged full-length CDK2/Flag-tagged cyclinE1 expressed in baculovirus expression system using eIF4E-binding protein-1 peptide as substrate incubated for 1 hr in presence of ATP by HTRF assay
[2] = Inhibition of CDK1/cyclin B (unknown origin) in presence of ATP; parameters: species or system Homo sapiens
[3] = Intrinsic clearance in human liver microsomes at 1 uM measured upto 30 mins by LC/MS analysis; type: ADME, Microsome; details: read-out: CLH (converted)
Homo sapiens [4] = organism: Homo sapiens; experiment: Selectivity ratio of IC50 for inhibition of CDK6/cyclin D1 (unknown origin) to IC50 for inhibition recombinant human N-terminal GST-tagged full-length CDK2/Flag-tagged cyclinE1 expressed in baculovirus expression system
[5] = biological target: Cyclin-dependent kinase 2 (Homo sapiens, UniProt P24941); experiment: Inhibition of CDK2 in human COV318 cells incubated for overnight in presence of human whole blood by HTRF assay; type: cell-based
Homo sapiens [6] = organism: Homo sapiens; experiment: Selectivity ratio of IC50 for inhibition of CDK4/cyclin D1 (unknown origin) to IC50 for inhibition recombinant human N-terminal GST-tagged full-length CDK2/Flag-tagged cyclinE1 expressed in baculovirus expression system
Homo sapiens [7] = organism: Homo sapiens; experiment: Selectivity ratio of IC50 for inhibition of CDK1/cyclin B (unknown origin) to IC50 for inhibition recombinant human N-terminal GST-tagged full-length CDK2/Flag-tagged cyclinE1 expressed in baculovirus expression system
Homo sapiens [8] = organism: Homo sapiens; experiment: Selectivity ratio of IC50 for inhibition of CDK1 in human OVCAR3 cells to IC50 for inhibition of CDK2 in human COV318 cells; type: cell-based
Homo sapiens [9] = organism: Homo sapiens; experiment: Selectivity ratio of IC50 for inhibition of CDK7 (unknown origin) to IC50 for inhibition recombinant human N-terminal GST-tagged full-length CDK2/Flag-tagged cyclinE1 expressed in baculovirus expression system; details: tested as the 2H-labelled form
Homo sapiens [10] = organism: Homo sapiens; experiment: Selectivity ratio of IC50 for inhibition of CDK1 (unknown origin) to IC50 for inhibition recombinant human N-terminal GST-tagged full-length CDK2/Flag-tagged cyclinE1 expressed in baculovirus expression system; details: tested as the 2H-labelled form
Homo sapiens [11] = organism: Homo sapiens; experiment: Selectivity ratio of IC50 for inhibition of CDK6 (unknown origin) to IC50 for inhibition recombinant human N-terminal GST-tagged full-length CDK2/Flag-tagged cyclinE1 expressed in baculovirus expression system; details: tested as the 2H-labelled form
Homo sapiens [12] = organism: Homo sapiens; experiment: Selectivity ratio of IC50 for inhibition of CDK4 (unknown origin) to IC50 for inhibition recombinant human N-terminal GST-tagged full-length CDK2/Flag-tagged cyclinE1 expressed in baculovirus expression system; details: tested as the 2H-labelled form
Homo sapiens [13] = organism: Homo sapiens; experiment: Selectivity ratio of IC50 for inhibition of CDK9 (unknown origin) to IC50 for inhibition recombinant human N-terminal GST-tagged full-length CDK2/Flag-tagged cyclinE1 expressed in baculovirus expression system; details: tested as the 2H-labelled form

For `CS(=O)(=O)N1CCC(Nc2ncc3c(n2)N(c2ccccc2)C(=O)C32CC2)CC1`, the IC50 [1] was 1610 nM.
For `CC1(C)Cc2cnc(Nc3ccc(S(N)(=O)=O)cc3)nc2N(C2CCCC2)C1=O`, the IC50 [2] was 170 nM and the IC50 [1] was 5 nM.
In the case of `CS(=O)(=O)N1CCC(Nc2ncc3c(n2)N(C2CCOCC2)C(=O)C32CC2)CC1`, the IC50 [1] is reported as 2200 nM.
Work on `C[C@@H]1CCC[C@H]1N1C(=O)C2(CC2)c2cnc(Nc3ccc(S(=O)(=O)NCCO)cc3)nc21` (relative stereo) yielded a predicted hepatic clearance at 1 µM [3] of over 18.3 mL/min/kg, a Ratio IC50 (Homo sapiens [4]) of 28 and an IC50 [1] of 1.8 nM. It also gave an IC50 [5] of 770 nM, a Ratio IC50 (Homo sapiens [6]) of 29 and a Ratio IC50 (Homo sapiens [7]) of 250.
Compound `CC1(C)C(=O)N(C2CCCC2)c2nc(NC3CCN(S(C)(=O)=O)CC3)ncc21` has an IC50 [2] of over 5000 nM and an IC50 [1] of 87 nM.
`CC[C@@H](C(F)F)N1C(=O)C2(CC2)c2cnc(NC3CCN(S(C)(=O)=O)CC3)nc21` showed a Ratio IC50 (Homo sapiens [8]) of 74, an IC50 [2] of 1690 nM and an IC50 [1] of 23 nM.
`CNS(=O)(=O)c1ccc(Nc2ncc3c(n2)N([C@@H](C)C2CC2)C(=O)C32CC2)cc1` gave a predicted hepatic clearance at 1 µM [3] of 11.7 mL/min/kg, a Ratio IC50 (Homo sapiens [4]) of 24 and an IC50 [1] of 1.6 nM. It also gave an IC50 [5] of 460 nM, a Ratio IC50 (Homo sapiens [6]) of 29 and a Ratio IC50 (Homo sapiens [7]) of 480.
Compound `CNS(=O)(=O)c1ccc(Nc2ncc3c(n2)N(c2cc(F)ccc2Cl)C(=O)C32CC2)cc1` has a predicted hepatic clearance at 1 µM [3] of 15 mL/min/kg, a Ratio IC50 (Homo sapiens [4]) of 120 and an IC50 [1] of 0.62 nM. It also gave an IC50 [5] of 460 nM, a Ratio IC50 (Homo sapiens [6]) of 58 and a Ratio IC50 (Homo sapiens [7]) of 1900.
For `CS(=O)(=O)N1CCC(Nc2ncc3c(n2)N(C2CCCC2)C(=O)C32CCC2)CC1`, the IC50 [2] was over 5000 nM and the IC50 [1] was 236 nM.
In the case of `C[C@@H]1CCC[C@H]1N1C(=O)C2(CC2)c2cnc(Nc3ccc(S(=O)(=O)N[C@@H]4CCCN(C)C4)cc3)nc21`, the predicted hepatic clearance at 1 µM [3] is reported as over 18.3 mL/min/kg, the Ratio IC50 (Homo sapiens [4]) is reported as 9 and the IC50 [1] is reported as 0.32 nM. The IC50 [5] was 44 nM, the Ratio IC50 (Homo sapiens [6]) was 8 and the Ratio IC50 (Homo sapiens [7]) was 100.
Work on `CNS(=O)(=O)c1ccc(Nc2ncc3c(n2)N([C@@H]2CCC[C@@H](O)C2)C(=O)C32CC2)cc1` yielded a predicted hepatic clearance at 1 µM [3] of 13.3 mL/min/kg, a Ratio IC50 (Homo sapiens [9]) of 17000 and a Ratio IC50 (Homo sapiens [10]) of 1200. It also gave a Ratio IC50 (Homo sapiens [11]) of 230, a Ratio IC50 (Homo sapiens [4]) of 230 and an IC50 [1] of 0.25 nM. It also gave a Ratio IC50 (Homo sapiens [12]) of 770, an IC50 [5] of 670 nM and a Ratio IC50 (Homo sapiens [6]) of 1000. The Ratio IC50 (Homo sapiens [13]) was 8200 and the Ratio IC50 (Homo sapiens [7]) was 1200.
